Data reported in patent US9161990B2, “Hydrochloride salts of a glycopeptide-cephalosporin antbiotic compond” (THERAVANCE BIOPHARMA ANTIBIOTICS IP, LLC, priority 2013, dated 2015).
Where a name gives a salt, the structure may show the parent alone.

Tests used:
[1] = Storage stability of lyophilized hydrochloride salts (purity by HPLC); type: physicochemical
Method: (§1) All solvents were HPLC grade and were purchased from Honeywell Burdick & Jackson (Muskegon, Mich. 49442). Phosphoric acid (85% w/w) and sodium dihydrogen phosphate were HPLC grade and were purchased from Fluka (Sigma-Aldrich, St. Louis, Mo. 63103). All reagents were used without further purification.
(§2) Test samples were filtered through a 0.2 μm polyvinylidene fluoride (PVDF) filter before analysis and the first 1 mL was discarded.
(§3) Test sample purity was determined based on the integrated peak area (area-under-the-curve or AUC) for the compound as a percentage of all integrated peaks. The concentration (assay value) of the compound in a test sample was determined by comparison with a reference standard.
(§4) One rack was stored protected from light in a drawer at room temperature and the other rack was stored in a refrigerator at 2 to 8° C. A representative vial of each type of stability sample was analyzed by HPLC after storage for 1, 3, 6 and 12 months to determine purity.

[2] = Storage stability of hydrochloride salts in a lyophilized composition containing sucrose and glycine (purity by HPLC); type: physicochemical; conditions: Trihydrochloride; for Purity (HPLC area percent) / Δ (change in percent purity from time = 0): composition containing sucrose and glycine; for decrease in purity: formulated with sucrose and glycine, listed as trihydrochloride salt
Method: as §1, §2, §3, §4

[3] = refrigerated temperature (2 to 8° C.), 1 month, Trihydrochloride
[4] = refrigerated temperature (2 to 8° C.), 3 months, Trihydrochloride
[5] = refrigerated temperature (2 to 8° C.), 6 months, Trihydrochloride
[6] = refrigerated temperature (2 to 8° C.), 12 months, Trihydrochloride
[7] = room temperature, 1 month, Trihydrochloride
[8] = room temperature, 3 months, Trihydrochloride
[9] = room temperature, 6 months, Trihydrochloride
[10] = room temperature, 12 months, Trihydrochloride
[11] = refrigerated temperature (2 to 8° C.), 1 month
[12] = refrigerated temperature (2 to 8° C.), 6 months
[13] = refrigerated temperature (2 to 8° C.), 12 months

- Purity (HPLC area percent) [1, 3]: 84.0%
- Δ (change in percent purity from time = 0) [1, 3]: −0.5%
- Purity (HPLC area percent) [1, 4]: 80.7%
- Δ (change in percent purity from time = 0) [1, 4]: −3.8%
- Purity (HPLC area percent) [1, 5]: 79.4%
- Δ (change in percent purity from time = 0) [1, 5]: −5.1%
- Purity (HPLC area percent) [1, 6]: 76.0%
- Δ (change in percent purity from time = 0) [1, 6]: −8.6%
- Purity (HPLC area percent) ([1]; refrigerated temperature (2 to 8° C.), time 0 months, Trihydrochloride): 84.5%
- Purity (HPLC area percent) [1, 7]: 74.8%
- Δ (change in percent purity from time = 0) [1, 7]: −9.7%
- Purity (HPLC area percent) [1, 8]: 69.5%
- Δ (change in percent purity from time = 0) [1, 8]: −15.0%
- Purity (HPLC area percent) [1, 9]: 56.5%
- Δ (change in percent purity from time = 0) [1, 9]: −28.0%
- Purity (HPLC area percent) [1, 10]: 50.4%
- Δ (change in percent purity from time = 0) [1, 10]: −34.2%
- Purity (HPLC area percent) ([1]; room temperature, time 0 months, Trihydrochloride): 84.5%
- decrease in purity ([1]; stored at 2 to 8° C. for 12 months, listed as trihydrochloride salt, Trihydrochloride): 8.6%
- decomposition on storage ([1]; stored at room temperature or at refrigerated temperature (about 2 to about 8° C.)): decompose significantly
- Purity (HPLC area percent) [2, 11]: 91.5%
- Δ (change in percent purity from time = 0) [2, 11]: 0.2%
- Δ (change in percent purity from time = 0) ([2]; refrigerated temperature (2 to 8° C.), 3 months): −0.5%
- Purity (HPLC area percent) [2, 12]: 92.8%
- Δ (change in percent purity from time = 0) [2, 12]: 1.5%
- Purity (HPLC area percent) [2, 13]: 90.1%
- Δ (change in percent purity from time = 0) [2, 13]: −1.2%
- Purity (HPLC area percent) ([2]; refrigerated temperature (2 to 8° C.), time 0 months): 91.3%
- Purity (HPLC area percent) ([2]; room temperature, 1 month): 89.2%
- Δ (change in percent purity from time = 0) ([2]; room temperature, 1 month): −2.1%
- Purity (HPLC area percent) ([2]; room temperature, 3 months): 84.4%
- Δ (change in percent purity from time = 0) ([2]; room temperature, 3 months): −6.9%
- Purity (HPLC area percent) ([2]; room temperature, 6 months): 82.5%
- Δ (change in percent purity from time = 0) ([2]; room temperature, 6 months): −8.8%
- Purity (HPLC area percent) ([2]; room temperature, 12 months): 65.0%
- Δ (change in percent purity from time = 0) ([2]; room temperature, 12 months): −26.3%
- Purity (HPLC area percent) ([2]; room temperature, time 0 months): 91.3%
- decrease in purity ([2]; stored at 2 to 8° C. for 12 months): 1.2%
- decrease in purity ([2]; stored at room temperature for 12 months): 26.3%
Structure (SMILES): CN[C@H](CC(C)C)C(=O)NC1C(=O)N[C@@H](CC(N)=O)C(=O)N[C@H]2C(=O)N[C@H]3C(=O)N[C@H](C(=O)N[C@H](C(=O)NCCCO/N=C(\C(=O)N[C@@H]4C(=O)N5C(C(=O)[O-])=C(C[n+]6ccccc6)CS[C@H]45)c4nc(N)sc4Cl)c4cc(O)cc(O)c4-c4cc3ccc4O)[C@H](O)c3ccc(c(Cl)c3)Oc3cc2cc(c3O[C@@H]2O[C@H](CO)[C@@H](O)[C@H](O)[C@H]2O[C@H]2C[C@](C)(N)[C@H](O)[C@H](C)O2)Oc2ccc(cc2Cl)[C@H]1O (stereo partly drawn) [Trihydrochloride, 26-[[[3-[[(Z)-[1-(2-Amino-5-chloro-4-thiazolyl)-2-[[(6R,7R)-2-carboxy-8-oxo-3-(pyridiniomethyl)-5-thia-1-azabicyclo[4.2.0]oct-2-en-7-yl]amino]-2-oxoethylidene]amino]oxy]propyl]amino]carbonyl]-26-decarboxyvancomycin Trihydrochloride, reference compound]
